How the values were obtained:
[1] = target: rhodesain (Trypanosoma brucei rhodesiense, UniProt Q95PM0); assay: Rhodesain inhibition assay; type: biochemical, T. brucei rhodesiense
[2] = system: T. brucei brucei 427 strain; assay: Antitrypanosomal activity, Alamar blue assay; type: cell-based; conditions: for IC50: Trypanosoma brucei, 24 h, read-out: IC50 T. brucei
[3] = Hep G2 cell viability, MTT assay; type: cell-based; conditions: human

Row | SMILES | IC50 [1] [nM] | IC50 [2] [nM] | viability at 72 h, 20 µM [3] [%] | inhibitory activity against rhodesain (in words) [1] | activity against T. brucei (in words) [2] | selectivity for the parasite over Hep G2 cells (in words) ([2]; T. brucei vs Hep G2 cells)
1 | Nc1ccc(-c2nc3ccc(Cc4ccc5nc(-c6ccc(N)cc6)[nH]c5c4)cc3[nH]2)cc1 [Compound 1, 4,4′-[methylenebis(1H-benzimidazole-6,2-diyl)]-dianiline] | 890 ± 100 | 5800 ± 1000 | 84.7 ± 5.79 | – | – | –
2 | O=C(c1ccccc1)c1ccc2[nH]c(-c3ccc(NC(=O)c4ccccc4Cl)cc3)nc2c1 [Compound 7, N-[4-(5-benzoyl-1H-benzimidazol-2-yl)phenyl]-2-chlorobenzamide] | > 20000 | 2830 ± 260 | 86.2 ± 9.67 | did not display any inhibitory activity | active | considerable selectivity
